This is an account of results in patent publication US4888283A, “Selective inhibitors of benzylaminoxidases with respect to other aminoxidases” (priority 1985, dated 1989).

Test [1] addresses Pure BAO obtained from swine plasma. Briefly: Inhibition of benzylaminoxidase (BAO), isotopic procedure with 14C-benzylamine. The test is classed as biochemical. Conditions: 30 minutes pre-incubation; 14C-benzylamine 1,7 mM (saturating); mean ± s.e. As to the method: The quantitative determination of benzylaminoxidases (BAO's) is carried out by the isotopic procedure disclosed by F. Buffoni and G. Ignesti (Biochem. J.; 145, 369 (1975)) employing ^14 C-benzylamine as the substrate at the final concentration of 1,7 mM.
(§1) Pure BAO obtained from swine plasma by the procedure disclosed by F. Buffoni and H. Blaschko (Proc. Roy. Soc. B 161, 153 (1964)); DAO from swine kidney, as obtained and purified by the Sigma (St. Louis, Md., USA, 0.25 U/mg); purified LAO from swine aorta obtained by the procedure disclosed by F. Buffoni and L. Raimondi (Agents and Actions, 11, 38 (1981)). Rat liver mitochondria obtained by the procedure disclosed by G. W. Schneider and G. H. Hogeboon (J. Biol. Chem., 183, 123 (1950)) were employed as the source of MAO.
(§2) IC50 (M)=The molar concentration of the inhibitor that inhibits 50% of the enzyme activity at a saturating concentration of the substrate. Said concentration is calculated from curves obtained by pre-incubation of the compound for 30 minutes (at 6 different concentrations) with the enzyme before adding the substrate and determining the enzymic rate.
(§3) The repetition of the experiments allows to obtain the average values of the IC50 (M) as well as the relative standard errors.

Test [2] concerns the target T1, purified LAO from swine aorta (Sus scrofa, UniProt P45845).
T1 construct: purified LAO from swine aorta; from tissue; host or cells: swine aorta, purified by the procedure of Buffoni and Raimondi (1981)
T1 sequence (P45845 1-249): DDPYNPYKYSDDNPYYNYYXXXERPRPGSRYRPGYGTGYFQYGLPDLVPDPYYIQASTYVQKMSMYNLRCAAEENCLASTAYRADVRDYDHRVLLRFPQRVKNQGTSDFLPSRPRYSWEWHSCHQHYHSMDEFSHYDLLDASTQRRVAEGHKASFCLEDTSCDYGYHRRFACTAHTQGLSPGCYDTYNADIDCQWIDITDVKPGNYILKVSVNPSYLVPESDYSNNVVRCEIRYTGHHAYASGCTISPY
The test is described as follows: Inhibition of lysyloxidase (LAO), isotopic procedure with 3H-elastine. The test is classed as biochemical. As to conditions: 30 minutes pre-incubation; 3H-elastine 0.150 mg/ml. As to the method:
The quantitative determination of lysyloxidase (LAO) is carried out by the isotopic procedure of […]. Biochem., 77, 141 (1977)) employing as the substrate ^3 […] prepared as disclosed by […], and G. R. Martin (Proc. Natl. Acad. Sci. USA 61, 708 (1968)) and isolated as disclosed by […]. Smith (Biochemistry, 8, 2940 (1969)). […] Pure BAO obtained from swine plasma by the procedure disclosed by F. Buffoni and H. Blaschko (Proc. Roy. Soc. B 161, 153 (1964)); DAO from swine kidney, as obtained and purified by the Sigma (St. Louis, Md., USA, 0.25 U/mg); purified LAO from swine aorta obtained by the procedure disclosed by F. Buffoni and L. Raimondi (Agents and Actions, 11, 38 (1981)). Rat liver mitochondria obtained by the procedure disclosed by G. W. Schneider and […]. Biol. Chem., 183, 123 (1950)) were employed as the source of MAO. IC50 (M)=The molar concentration of the inhibitor that inhibits 50% of the enzyme activity at a saturating concentration of the substrate. Said concentration is calculated from curves obtained by pre-incubation of the compound for 30 minutes (at 6 different concentrations) with the enzyme before adding the substrate and determining the enzymic rate. The repetition of the experiments allows to obtain the average values of the IC50 (M) as well as the relative standard errors.

Test [3] deals with Pure BAO obtained from swine plasma. Briefly: Compound as the substrate of BAO (production of H2O2). The format is biochemical. As to conditions: 37° C., air. On the set-up: key: the compound is the substrate; ns: the compound is not the substrate. As to the method: (§4) The oxidation of the compound is estimated in all cases by measuring the production of H2 O2. Such operation is carried out within a temperature-controlled bath set at 37° C. and stirred, in the presence of air. The production-of H2 O2 is quantitatively determined by the method of H. P. Lehman, K. H. Schosinsky, M. F. Beeler (Clin. Chem., 20, 1564 (1974)).
as §1

Test [4] shares this test system. The test is described as follows: Reversibility of BAO inhibition by dialysis. The format is biochemical. On the set-up: key: reversible inhibition; irreversible inhibition; pr: partially reversible inhibition. As to conditions: dialysis of the solution.
Excerpt: as §1
The reversibility of the effect was evaluated showing that the inhibition caused by a certain concentration of the inhibitor (for instance the IC50 value) would be reverted by dialysis of the solution.

Test [5] has as its target T2, DAO from swine kidney (Sus scrofa, UniProt Q9TRC7).
T2 construct: DAO from swine kidney, as obtained and purified by the Sigma; purchased Sigma (St. Louis); host or cells: swine kidney
T2 sequence (Q9TRC7 25-755): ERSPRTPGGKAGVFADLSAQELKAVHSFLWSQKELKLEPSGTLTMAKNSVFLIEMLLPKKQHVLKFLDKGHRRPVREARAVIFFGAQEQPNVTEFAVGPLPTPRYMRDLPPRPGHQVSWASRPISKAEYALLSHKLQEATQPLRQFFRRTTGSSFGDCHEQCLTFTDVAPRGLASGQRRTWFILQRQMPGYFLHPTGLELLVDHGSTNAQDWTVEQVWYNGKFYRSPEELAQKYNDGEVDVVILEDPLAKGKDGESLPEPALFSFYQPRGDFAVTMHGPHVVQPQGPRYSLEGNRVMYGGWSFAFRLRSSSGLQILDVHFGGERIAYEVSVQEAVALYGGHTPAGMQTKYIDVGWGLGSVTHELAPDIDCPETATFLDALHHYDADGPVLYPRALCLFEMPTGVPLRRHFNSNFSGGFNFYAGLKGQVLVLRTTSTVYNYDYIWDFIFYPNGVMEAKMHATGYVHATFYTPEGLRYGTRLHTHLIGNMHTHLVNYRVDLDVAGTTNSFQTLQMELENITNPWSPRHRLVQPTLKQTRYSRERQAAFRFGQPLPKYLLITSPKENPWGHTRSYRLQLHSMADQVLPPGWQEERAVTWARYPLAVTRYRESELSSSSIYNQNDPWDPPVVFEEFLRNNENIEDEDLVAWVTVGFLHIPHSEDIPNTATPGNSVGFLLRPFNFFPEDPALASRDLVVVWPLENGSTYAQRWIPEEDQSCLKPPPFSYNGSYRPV
Briefly: Inhibition of diaminoxidase (DAO), isotopic method with 14C-putrescine. The test is classed as biochemical. As to conditions: 30 minutes pre-incubation; 14C-putrescine 1 mM; mean ± s.e. As to the method: The quantitative determination of the diaminoxidases (DAO's) is performed by the isotopic method disclosed by J. Kusche, H. Richter, R. Hesterberg, J. Schmidt, W. Lorenz, (Agents and Actions, 3, 148-156 (1973)) employing ^14 C-putrescine as the substrate at the final concentration of 1 mM.
as §1, §2, §3

For test [6], the target named is T2, DAO from swine kidney. Briefly: Compound as the substrate of DAO (production of H2O2). The test is classed as biochemical. Also noted: key: the compound is the substrate; ns: the compound is not the substrate. Conditions: 37° C., air. The method, then: as §4, §1
The test system of test [7] is MAO (rat liver mitochondria). Briefly: Inhibition of monoaminoxidases (MAO), isotopic procedure with 14C-beta-phenylethylamine. The test is classed as biochemical. As to conditions: 30 minutes pre-incubation; 14C-beta-phenylethylamine 1.7 mM; mean ± s.e. As to the method: The quantitative determination of monoaminoxidases (MAO's) is carried out by the same procedure as the determination of BAO's, but ^14 C-beta-phenylethylamine is employed at the final concentration of 1.7 mM.
as §1, §2, §3

Test [8] relates to Pure BAO obtained from swine plasma. Briefly: Inhibition type on BAO (Lineweaver-Burk). The format is biochemical. Also noted: key: competitive inhibition; nc: not competitive inhibition; mixed inhibition. Conditions: 1/v vs. 1/s, 5 substrate concentrations.
Excerpt: as §1
The inhibition type was evaluated by studying the effect of the compound on the enzymic rate (v) at 5 different concentrations of the substrate (s) and plotting the results by the classical procedure as 1/v vs. 1/s according to Lineweaver-Burk.

Test [9] deals with MAO (rat liver mitochondria). The test is described as follows: Compound as the substrate of MAO (production of H2O2). The test is classed as biochemical. On the set-up: key: the compound is the substrate; ns: the compound is not the substrate. As to conditions: 37° C., air. The method, then:
as §4, §1

The test system of a further test is BAO's. As to conditions: background statement, cited from earlier work.

On to `COCOc1cccc(OCOC)c1CN.Cl` [Example 9, 2,6-bis(methoxymethoxy)benzylamine hydrochloride], for which the IC50 is 0.95 µM in test [1], over 1000 µM in test [2], over 10000 µM at DAO from swine kidney [5] and 22000 ± 60 µM in test [7]. For the same molecule, the “BAO: compound as the substrate” value in test [3] was “s”. Further, in [4], the “BAO: reversibility of the inhibition” value was “r”. Besides, the “DAO: compound as the substrate” value at DAO from swine kidney [6] is “s”. Further, the “BAO: inhibition type” value in [8] is listed as “m”. Also, the “MAO: compound as the substrate” value in test [9] is on record as “ns”.
Consider `CCCc1cccc(CCC)c1CN.Cl` [Example 12, 2,6-di-n-propylbenzylamine hydrochloride], for which the IC50 (in test [2]; on DAO from swine kidney [5]; in test [7]) was 1000 µM throughout. In addition, the “BAO: compound as the substrate” value in test [3] was “ns”. The “BAO: reversibility of the inhibition” value in [4] is given as “r”. The “DAO: compound as the substrate” value at DAO from swine kidney [6] is on record as “s weak”. The “BAO: inhibition type” value in [8] is “nc”. Further, the “MAO: compound as the substrate” value in [9] is “s”.
For the molecule `N#CCCN` [beta-aminopropionitrile], the IC50 with BAO's (read-out: I50 on BAO's) is over 10000 µM. Further, in the test on BAO's (high concentrations), the “Kind of inhibition of BAO's” value is “irreversibly”.
